“And” between values parts separate entries of the source, which are not always exact repeats. Equal entries are not always repeated. ± gives the expanded uncertainty stated by the source.
Assay: xn = mol fraction of the nth substance listed
Conditions: 101.3 kPa, Liquid

CC(C)c1ccccc1 [isopropylbenzene] + N#Cc1ccccc1
298.15 K, Flow calorimetry
Conditions | excess molar heat capacity [J/K/mol]
x2 = 0.0812 | 1.087 ± 0.1
x2 = 0.1147 | 1.448 ± 0.11
x2 = 0.2052 | 2.23 ± 0.11
x2 = 0.3131 | 2.763 ± 0.11
x2 = 0.3691 | 2.935 ± 0.12
x2 = 0.4488 | 2.929 ± 0.12
x2 = 0.5194 | 2.919 ± 0.12
x2 = 0.6256 | 2.511 ± 0.11
x2 = 0.6997 | 2.226 ± 0.11
x2 = 0.8003 | 1.545 ± 0.11
x2 = 0.9038 | 0.825 ± 0.1
x2 = 0.9407 | 0.527 ± 0.1

mass density [kg/m3]
Conditions | 298.15 K | 308.15 K
x2 = 0 | 857.41 ± 0.49 | 848.26 ± 0.5
x2 = 0.0581 | 864.33 ± 0.47 | 855.15 ± 0.48
x2 = 0.0865 | 867.75 ± 0.46 | 858.59 ± 0.47
x2 = 0.2036 | 882.15 ± 0.41 | 872.93 ± 0.43
x2 = 0.2835 | 892.28 ± 0.38 | 883.09 ± 0.4
x2 = 0.3445 | 900.22 ± 0.36 | 891.02 ± 0.37
x2 = 0.3887 | 906.07 ± 0.35 | 896.85 ± 0.36
x2 = 0.4445 | 913.59 ± 0.33 | 904.41 ± 0.34
x2 = 0.5627 | 930.2 ± 0.28 | 920.94 ± 0.3
x2 = 0.6557 | 943.85 ± 0.25 | 934.41 ± 0.26
x2 = 0.7271 | 954.72 ± 0.22 | 945.3 ± 0.24
x2 = 0.8102 | 967.92 ± 0.19 | 958.51 ± 0.21
x2 = 0.9017 | 983.11 ± 0.16 | 973.75 ± 0.18

N#Cc1ccccc1 [benzonitrile] + Cc1ccc(C)cc1
298.15 K, Flow calorimetry
Conditions | excess molar heat capacity [J/K/mol]
x1 = 0.0349 | 0.303 ± 0.1
x1 = 0.0918 | 0.681 ± 0.1
x1 = 0.2035 | 1.281 ± 0.11
x1 = 0.2559 | 1.362 ± 0.11
x1 = 0.3682 | 1.534 ± 0.11
x1 = 0.4313 | 1.443 ± 0.11
x1 = 0.5014 | 1.374 ± 0.11
x1 = 0.5905 | 1.132 ± 0.11
x1 = 0.6663 | 0.966 ± 0.1
x1 = 0.7646 | 0.664 ± 0.1
x1 = 0.8402 | 0.453 ± 0.1
x1 = 0.9222 | 0.168 ± 0.1
x1 = 0.9776 | 0.082 ± 0.1

mass density [kg/m3]
Conditions | x1 = 0.1009 | x1 = 0.2247 | x1 = 0.2938 | x1 = 0.4357 | x1 = 0.5627 | x1 = 0.6605 | x1 = 0.7646 | x1 = 0.8328 | x1 = 0.9439 | x1 = 1
298.15 K | 869.79 ± 0.45 | 886.32 ± 0.4 | 895.69 ± 0.38 | 915.25 ± 0.33 | 933.25 ± 0.28 | 947.47 ± 0.24 | 963.07 ± 0.21 | 973.55 ± 0.18 | 991.13 ± 0.15 | 1000.25 ± 0.13
308.15 K | 860.32 ± 0.46 | 876.88 ± 0.42 | 886.28 ± 0.39 | 905.85 ± 0.34 | 923.86 ± 0.29 | 938.07 ± 0.26 | 953.65 ± 0.22 | 964.15 ± 0.2 | 981.68 ± 0.16 | 990.67 ± 0.15

COc1ccccc1 [anisole] + N#Cc1ccccc1
x2 = 0
Conditions | mass density [kg/m3]
298.15 K | 988.98 ± 0.34
308.15 K | 978.7 ± 0.35

N#Cc1ccccc1 [benzonitrile] + Cc1ccccc1C
Conditions | excess molar heat capacity, 298.15 K [J/K/mol] | mass density, 298.15 K [kg/m3] | mass density, 308.15 K [kg/m3]
x1 = 0.0394 | 0.448 ± 0.051 | – | –
x1 = 0.0781 | 0.829 ± 0.052 | – | –
x1 = 0.0815 | – | 884.98 ± 0.44 | 875.72 ± 0.45
x1 = 0.1262 | – | 890.21 ± 0.42 | 881 ± 0.43
x1 = 0.1398 | 1.273 ± 0.053 | – | –
x1 = 0.1604 | – | 894.21 ± 0.41 | 884.95 ± 0.42
x1 = 0.2299 | 1.689 ± 0.054 | – | –
x1 = 0.2579 | – | 905.68 ± 0.37 | 896.47 ± 0.38
x1 = 0.2803 | 1.799 ± 0.055 | – | –
x1 = 0.3687 | 1.875 ± 0.055 | – | –
x1 = 0.4054 | – | 923.32 ± 0.32 | 914.01 ± 0.33
x1 = 0.4391 | 1.792 ± 0.054 | – | –
x1 = 0.496 | – | 934.4 ± 0.29 | 925.13 ± 0.3
x1 = 0.5361 | – | 939.32 ± 0.27 | 929.98 ± 0.29
x1 = 0.5364 | 1.592 ± 0.054 | – | –
x1 = 0.611 | 1.376 ± 0.053 | – | –
x1 = 0.6558 | – | 954.37 ± 0.23 | 945.1 ± 0.25
x1 = 0.6924 | – | 959.03 ± 0.22 | 949.64 ± 0.23
x1 = 0.7003 | 1.11 ± 0.053 | – | –
x1 = 0.7684 | 0.826 ± 0.052 | – | –
x1 = 0.8727 | 0.479 ± 0.051 | – | –
x1 = 0.876 | – | 983.2 ± 0.16 | 973.86 ± 0.18
x1 = 0.9031 | – | 986.86 ± 0.16 | 977.39 ± 0.17
x1 = 0.9314 | 0.242 ± 0.051 | – | –
x1 = 0.9608 | – | 994.84 ± 0.14 | 985.42 ± 0.16
x1 = 1 | – | 1000.25 ± 0.13 | 990.67 ± 0.15

Cc1ccccc1C [1,2-dimethylbenzene] + N#Cc1ccccc1
x2 = 0
Conditions | mass density [kg/m3]
298.15 K | 875.55 ± 0.47
308.15 K | 866.29 ± 0.48

N#Cc1ccccc1 [benzonitrile] + CC(C)c1ccccc1
x1 = 1
Conditions | mass density [kg/m3]
298.15 K | 1000.25 ± 0.13
308.15 K | 990.67 ± 0.15

Cc1ccc(C)c(C)c1 [1,2,4-trimethylbenzene] + N#Cc1ccccc1
x2 = 0
Conditions | mass density [kg/m3]
298.15 K | 871.56 ± 0.48
308.15 K | 862.53 ± 0.49

N#Cc1ccccc1 [benzonitrile] + Cc1ccc(C)c(C)c1
Conditions | excess molar heat capacity, 298.15 K | mass density, 298.15 K [kg/m3] | mass density, 308.15 K [kg/m3]
x1 = 0.0712 | – | 879.01 ± 0.45 | –
x1 = 0.0829 | 0.643 ± 0.052 J/K/mol | – | –
x1 = 0.1322 | – | 885.6 ± 0.42 | 876.48 ± 0.44
x1 = 0.1409 | 0.998 ± 0.053 J/K/mol and 0.981 ± 0.052 J/K/mol | – | –
x1 = 0.1765 | – | 890.46 ± 0.41 | 881.29 ± 0.42
x1 = 0.2844 | 1.571 ± 0.054 J/K/mol and 1.511 ± 0.054 J/K/mol | – | –
x1 = 0.2874 | – | 902.94 ± 0.37 | 893.72 ± 0.38
x1 = 0.3441 | – | 909.49 ± 0.35 | 900.27 ± 0.36
x1 = 0.377 | 1.621 ± 0.054 J/K/mol | – | –
x1 = 0.3967 | – | 915.71 ± 0.33 | 906.56 ± 0.34
x1 = 0.445 | – | 921.57 ± 0.31 | 912.35 ± 0.33
x1 = 0.4558 | 1.622 ± 0.054 J/K/mol | – | –
x1 = 0.5283 | – | 932.03 ± 0.29 | 922.7 ± 0.3
x1 = 0.5359 | 1.475 ± 0.054 J/K/mol | – | –
x1 = 0.5861 | – | 939.54 ± 0.27 | 930.13 ± 0.28
x1 = 0.6329 | – | 945.69 ± 0.25 | 936.31 ± 0.26
x1 = 0.6367 | 1.241 ± 0.053 J/K/mol | – | –
x1 = 0.6879 | – | 953.12 ± 0.23 | 943.75 ± 0.24
x1 = 0.6974 | 1.021 ± 0.053 J/K/mol | – | –
x1 = 0.7772 | 0.753 ± 0.052 J/K/mol | – | –
x1 = 0.7796 | – | 966.07 ± 0.2 | 956.62 ± 0.21
x1 = 0.7804 | – | 966.21 ± 0.2 | 956.8 ± 0.21
x1 = 0.8187 | – | 971.88 ± 0.19 | 962.37 ± 0.2
x1 = 0.9027 | – | 984.6 ± 0.16 | 975.04 ± 0.17
x1 = 0.9039 | 0.294 ± 0.051 J/K/mol | – | –
x1 = 0.9079 | – | 985.41 ± 0.16 | 975.88 ± 0.17
x1 = 0.9431 | 0.176 ± 0.05 J/K/mol | – | –
x1 = 0.9687 | – | 995.12 ± 0.14 | –
x1 = 0.9822 | – | 997.27 ± 0.14 | –
x1 = 1 | – | 1000.25 ± 0.13 | 990.67 ± 0.15

From the NIST ThermoML archive (doi:10.1016/j.jct.2006.09.007)
